Earlier results as cited in patent publication US6582498B1, “Method of separating carbon dioxide from a gas mixture using a fluid dynamic instability” (Battelle Memorial Institute, priority 2001, dated 2003).

Tests used:
[1] = test system: rabbit
[2] = test system: mouse
[3] = test system: rat

NCCO [MEA, monoethanolamine]
eye irritation (for rabbit) [1]: 0.763 milligrams | LD50 (intraperitoneal for mouse) [2]: 50 mg/kg | LD50 (oral for rat) [3]: 2,050 mg/kg
